Earlier results as cited in patent US10214591B1, “Monoclonal antibody to human line-1 ORF2 protein and method for early detection of transforming cells in pre-neoplastic tissues of a human subject” (Alienor Farma, priority 2015, dated 2019).

How the values were obtained:
[1] = system: human tumorigenic cells; details: xenografted mice
[2] = system: tumorigenic cell lines

Compound | effect on tumor progression [1] | effect on proliferation and differentiation of cancer cells [2]
O=C1Nc2ccc(Cl)cc2[C@@](C#CC2CC2)(C(F)(F)F)O1 [efavirenz, (S)-6-Chloro-4-(cyclopropylethynyl)-1,4-dihydro-4-(trifluoromethyl)-2H-3,1 benzoxazin-2-one] | arrest, or a significant reduction, of tumor progression | reduced proliferation and enhanced differentiation
Cc1ccnc2c1NC(=O)c1cccnc1N2C1CC1 [nevirapine] | – | reduced proliferation and enhanced differentiation
